Source: patent US20020143047A1, “Methods for treating indomethacin responsive headaches” (priority 2001, published 2002)

Tested on: patient suffering from hemicrania continua and ulceritive colitis
Experiment: Clinical treatment of a patient with hemicrania continua: topical indomethacin patch, and prior oral indomethacin
Format: in vivo, human
Method: Typically, the symptom ameliorated by the subject methods is pain associated with the syndrome being treated. In many embodiments, the intensity of pain associated with the syndrome is at least reduced, if not eliminated. Reduction in pain intensity is evaluated according to the protocol described at pages 161-176, and particularly page 172, of “Guidelines for Controlled Trials of Drugs in Cluster Headache,” published by the International Headache Society Committee on Clinical Trials in Cluster Headache. The magnitude of reduction in pain intensity is generally at least about 10%, usually at least about 25% and more usually at least about 50%, where magnitude of reduction may be as high as 75%, 80%, 95% or higher, including a complete cessation of pain, as determined by the assay described above.
The topical formulation described in I, above, was employed to treat a patient suffering from hemicrania continua and ulceritive colitis. The patient suffered from a six-year history of constant right-sided hemicranial pain of mild to moderate severity. Superimposed exacerbations of more intense pain occurred twice weekly and would last up to twelve hours. These painful exacerbations were associated with ipsilateral ptosis, conjunctival injection and lacrimation.
The patient was then treated with the topical application of indomethacin described in I, above, by applying the topical application to the site of maximal pain, i.e. the right forehead and temple. […] The patient was then instructed to reapply the patch twice daily, at twelve hour intervals. […] This was a favorable result compared with other forms of treatment that the patient had previously employed, whereas despite appropriate therapy, the patient's other medical condition worsened in response to oral administration of indomethacin.

[1] = prior treatment, 25 mg, three times daily

COc1ccc2c(c1)c(CC(=O)O)c(C)n2C(=O)c1ccc(Cl)cc1 [indomethacin, Indomethacin]
effect on gastrointestinal symptoms (decreased dosage): continued to aggravate the gastrointestinal symptoms
effect on headache syndrome (decreased dosage): did not abolish the headache syndrome
effect on pain [1]: complete resolution of pain
effect on patient's ulcerative colitis [1]: significant worsening
